Measurements reported in the supplement of paper PMC10307832.

How the values were obtained:
Test in all cases: relative viability (nuclei count vs DMSO), 5 days (fraction); higher = more cells survive
NCI-H1648 = test system: NCI-H1648
Summary of the method: (§1)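 Lung cancer cell lines in 1536-well plates were dosed by pin tool the day after seeding, either with one drug alone or with a fixed anchor-drug dose plus five library-drug doses (not always all listed) in √10 steps. After 5 days, cells were fixed and their nuclei stained in one step (final 0.05% Triton X-100, 1% formaldehyde, 1 ug/ml Hoechst), then counted on 4× images. Relative viability is the nuclei count in treated wells divided by that in vehicle wells. Values are medians of duplicate plates.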

CAL-12T = test system: CAL-12T
Summary of the method: as §1

NCI-H1755 = test system: NCI-H1755
Summary of the method: as §1

LK-2 = test system: LK-2
Summary of the method: as §1

A-427 = test system: A-427
Summary of the method: as §1

NCI-H1651 = test system: NCI-H1651
Summary of the method: as §1

NCI-H1703 = test system: NCI-H1703
Summary of the method: as §1

Question: Which results are given for `Cc1cn(-c2cc(NC(=O)c3ccc(C)c(Nc4nccc(-c5cccnc5)n4)c3)cc(C(F)(F)F)c2)cn1` [Nilotinib] + CC(=O)Nc1cccc(-n2c(=O)n(C3CC3)c(=O)c3c(Nc4ccc(I)cc4F)n(C)c(=O)c(C)c32)c1 [Trametinib] (partner 0.02 µM)?
Answer: relative viability (NCI-H1648; first compound 0.001 µM): 0.436; relative viability (NCI-H1648; first compound 0.003162 µM): 0.434; relative viability (NCI-H1648; first compound 0.01 µM): 0.44; relative viability (NCI-H1648; first compound 0.03162 µM): 0.331; relative viability (NCI-H1648; first compound 0.1 µM): 0.329; relative viability (CAL-12T; first compound 0.001 µM): 0.289; relative viability (CAL-12T; first compound 0.003162 µM): 0.34; relative viability (CAL-12T; first compound 0.01 µM): 0.261; relative viability (CAL-12T; first compound 0.03162 µM): 0.283; relative viability (CAL-12T; first compound 0.1 µM): 0.249; relative viability (NCI-H1755; first compound 0.001 µM): 0.745; relative viability (NCI-H1755; first compound 0.003162 µM): 0.806; relative viability (NCI-H1755; first compound 0.01 µM): 0.699; relative viability (NCI-H1755; first compound 0.03162 µM): 0.64; relative viability (NCI-H1755; first compound 0.1 µM): 0.556; relative viability (LK-2; first compound 0.001 µM): 0.514; relative viability (LK-2; first compound 0.003162 µM): 0.515; relative viability (LK-2; first compound 0.01 µM): 0.687; relative viability (LK-2; first compound 0.03162 µM): 0.46; relative viability (LK-2; first compound 0.1 µM): 0.608; relative viability (A-427; first compound 0.001 µM): 0.812; relative viability (A-427; first compound 0.003162 µM): 0.567; relative viability (A-427; first compound 0.01 µM): 0.73; relative viability (A-427; first compound 0.03162 µM): 0.522; relative viability (A-427; first compound 0.1 µM): 0.556; relative viability (NCI-H1651; first compound 0.001 µM): 0.828; relative viability (NCI-H1651; first compound 0.003162 µM): 0.916; relative viability (NCI-H1651; first compound 0.01 µM): 0.951; relative viability (NCI-H1651; first compound 0.03162 µM): 0.761; relative viability (NCI-H1651; first compound 0.1 µM): 0.851

Question: Which results are given for `CCNC(=O)c1noc(-c2cc(C(C)C)c(O)cc2O)c1-c1ccc(CN2CCOCC2)cc1` [Luminespib] + CC(=O)Nc1cccc(-n2c(=O)n(C3CC3)c(=O)c3c(Nc4ccc(I)cc4F)n(C)c(=O)c(C)c32)c1 [Trametinib] (partner 0.02 µM)?
Answer: relative viability (NCI-H1648; first compound 0.002 µM): 0.395; relative viability (NCI-H1648; first compound 0.006325 µM): 0.492; relative viability (NCI-H1648; first compound 0.02 µM): 0.513; relative viability (NCI-H1648; first compound 0.06325 µM): 0.407; relative viability (NCI-H1648; first compound 0.2 µM): 0.278; relative viability (CAL-12T; first compound 0.002 µM): 0.321; relative viability (CAL-12T; first compound 0.006325 µM): 0.356; relative viability (CAL-12T; first compound 0.02 µM): 0.162; relative viability (CAL-12T; first compound 0.06325 µM): 0.111; relative viability (CAL-12T; first compound 0.2 µM): 0.117; relative viability (NCI-H1755; first compound 0.002 µM): 0.783; relative viability (NCI-H1755; first compound 0.006325 µM): 0.733; relative viability (NCI-H1755; first compound 0.02 µM): 0.691; relative viability (NCI-H1755; first compound 0.06325 µM): 0.765; relative viability (NCI-H1755; first compound 0.2 µM): 0.701; relative viability (LK-2; first compound 0.002 µM): 0.834; relative viability (LK-2; first compound 0.006325 µM): 0.711; relative viability (LK-2; first compound 0.02 µM): 0.637; relative viability (LK-2; first compound 0.06325 µM): 0.164; relative viability (LK-2; first compound 0.2 µM): 0.166; relative viability (A-427; first compound 0.002 µM): 0.771; relative viability (A-427; first compound 0.006325 µM): 0.74; relative viability (A-427; first compound 0.02 µM): 0.632; relative viability (A-427; first compound 0.06325 µM): 0.607; relative viability (A-427; first compound 0.2 µM): 0.281; relative viability (NCI-H1651; first compound 0.002 µM): 0.787; relative viability (NCI-H1651; first compound 0.006325 µM): 0.798; relative viability (NCI-H1651; first compound 0.02 µM): 0.634; relative viability (NCI-H1651; first compound 0.06325 µM): 0.754; relative viability (NCI-H1651; first compound 0.2 µM): 0.609

Question: Which results are given for `Cc1csc(=NC2CCCCC2)n1/N=C/c1ccc(O)c(O)c1O` [MIM1] + NC(=O)Nc1cc(-c2cccc(F)c2)sc1C(=O)N[C@H]1CCCNC1 [AZD7762] (partner 0.2 µM)?
Answer: relative viability (NCI-H1648; first compound 0.2 µM): 0.615; relative viability (NCI-H1648; first compound 0.6325 µM): 0.718; relative viability (NCI-H1648; first compound 2 µM): 0.679; relative viability (NCI-H1648; first compound 6.325 µM): 0.677; relative viability (NCI-H1648; first compound 20 µM): 0.436; relative viability (NCI-H1703; first compound 0.2 µM): 0.124; relative viability (NCI-H1703; first compound 0.6325 µM): 0.134; relative viability (NCI-H1703; first compound 2 µM): 0.107; relative viability (NCI-H1703; first compound 6.325 µM): 0.112; relative viability (NCI-H1703; first compound 20 µM): 0.122; relative viability (CAL-12T; first compound 0.2 µM): 0.527; relative viability (CAL-12T; first compound 0.6325 µM): 0.575; relative viability (CAL-12T; first compound 2 µM): 0.605; relative viability (CAL-12T; first compound 6.325 µM): 0.436; relative viability (CAL-12T; first compound 20 µM): 0.332; relative viability (NCI-H1755; first compound 0.2 µM): 0.464; relative viability (NCI-H1755; first compound 0.6325 µM): 0.436; relative viability (NCI-H1755; first compound 2 µM): 0.433; relative viability (NCI-H1755; first compound 6.325 µM): 0.38; relative viability (NCI-H1755; first compound 20 µM): 0.354; relative viability (LK-2; first compound 0.2 µM): 0.423; relative viability (LK-2; first compound 0.6325 µM): 0.287; relative viability (LK-2; first compound 2 µM): 0.333; relative viability (LK-2; first compound 6.325 µM): 0.324; relative viability (LK-2; first compound 20 µM): 0.25; relative viability (A-427; first compound 0.2 µM): 0.706; relative viability (A-427; first compound 0.6325 µM): 0.7; relative viability (A-427; first compound 2 µM): 0.651; relative viability (A-427; first compound 6.325 µM): 0.525; relative viability (A-427; first compound 20 µM): 0.395; relative viability (NCI-H1651; first compound 0.2 µM): 0.464; relative viability (NCI-H1651; first compound 0.6325 µM): 0.434; relative viability (NCI-H1651; first compound 2 µM): 0.425; relative viability (NCI-H1651; first compound 6.325 µM): 0.429; relative viability (NCI-H1651; first compound 20 µM): 0.503
